PMC4265264 (Hepatology (Baltimore, Md.), 2014)
pIC50: −log10 of the molar value.

How the values were obtained:
[1] = system: HCVpp; test: HCV pseudoparticle; type: cell-based, hepatitis C virus; settings: Huh-7.5.1 cells pretreated 1 h, HCVpp 4 h, read at 72 h
[2] = system: HBV particles; test: Pretreatment of HBV particles with compounds, then infection of HepaRG cells; type: cell-based, hepatitis B virus; settings: 30 min 37°C, compound removed by ultrafiltration, HBs at 12 days
[3] = system: calcineurin/NF-AT pathway; test: Calcineurin/NF-AT reporter assay in Jurkat cells; type: cell-based, human; settings: pNF-AT-luc, PMA and ionomycin
[4] = system: HBV; test: HBV infection; type: cell-based, hepatitis B virus; settings: HepaRG
[5] = system: HBV; test: HBV infection of HepG2 cells overexpressing NTCP; type: cell-based, hepatitis B virus; settings: pretreated 2 h, HBV 16 h
[6] = system: HBV; test: HBV infection of primary human hepatocytes; type: cell-based, hepatitis B virus; settings: CsA 4 μM, HBs in medium or HBV DNA in cells at 12 days
[7] = system: HBV; test: HBV attachment and internalization assay in HepaRG cells; type: cell-based, hepatitis B virus; settings: CsA 4 μM
[8] = system: HCV; settings: read-out: anti-HCV replication activity (IC50); cited from earlier work
[9] = system: HBV; test: HBV replication in HepAD38 cells, southern blot of core particle HBV DNA; type: cell-based, hepatitis B virus; settings: lamivudine 1 μM, 6 days

heparin
HCV entry (HCVpp luciferase activity) [1]: inhibition of HCV entry
HBV infectivity after preincubation of HBV with compound [2]: antagonizing effect

PSC833
Calcineurin (CN)/NF-AT pathway inhibition [3]: inactive for CN inhibition

CO/C1=C\C(C)=C\[C@@H](C)[C@@H](O)[C@@H](C)C/C(C)=C/C=C/[C@H](OC)[C@@H]([C@@H](C)[C@@H](O)[C@H](C)[C@@]2(O)C[C@@H](O)[C@H](C)[C@@H](C(C)C)O2)OC1=O [bafilomycin A1]
HCV entry (HCVpp luciferase activity) [1]: inhibition of HCV entry

C=CC[C@@H]1/C=C(\C)C[C@H](C)C[C@H](OC)[C@H]2O[C@@](O)(C(=O)C(=O)N3CCCC[C@H]3C(=O)O[C@H](/C(C)=C/[C@@H]3CC[C@@H](O)[C@H](OC)C3)[C@H](C)[C@@H](O)CC1=O)[C@H](C)C[C@@H]2OC [FK506]
Calcineurin (CN)/NF-AT pathway inhibition [3]: can inhibit CN

cyclosporin A [CsA]
HBc protein, HBV DNA and cccDNA in the cells and HBe in the medium ([4]; CsA 4 μM, 12 days postinfection): significantly decreased
HBs and HBe production, compound added during HBV infection (time of addition) ([4]; CsA 4 μM, Fig. 2E-b): decreased HBs and HBe production
HBs and HBe production, compound added after HBV infection (time of addition) ([4]; CsA 4 μM, Fig. 2E-c): did not have an anti‐HBV effect
Dose-response of HBs (and HBe) secretion ([4]; protocol Fig. 1A, CsA 0.5-4 μM, analogs 0.25-4 μM): decreased HBs and HBe secreted from the infected cells
HCV entry (HCVpp luciferase activity) [1]: did not affect the entry of HCV
HBs and HBe secretion of HBV-infected HepG2-NTCP cells [5]: reduced HBs and HBe secretion
HBV infectivity after preincubation of HBV with compound [2]: did not affect HBV infectivity
Infection of different HBV genotypes into PHHs [6]: reduced the infection of HBV genotype A, C, or D
Calcineurin (CN)/NF-AT pathway inhibition [3]: can inhibit CN
Attached HBV DNA (attachment assay) ([7]; 4°C 3 h, real-time PCR): slightly reduced the amount of attached HBV DNA, although the effect was not statistically significant
Internalized HBV DNA (internalization assay) ([7]; 37°C 16 h after attachment, trypsinized): significant reduction of HBV DNA

Alisporivir
pIC50 [8]: 6.66

Nc1ccn([C@@H]2CS[C@H](CO)O2)c(=O)n1 [lamivudine]
HBV DNA in HepAD38 cells [9]: drastically decreased HBV DNAs
